{"source": "patent US20110015080A1", "about": "“Solution-based methods for RNA expression profiling” (MASSACHUSETTS INSTITUTE OF TECHNOLOGY, priority 2005, published 2011)", "test_system": "HL60 (human promyelocytic leukemia) cells", "test": "LMA-FlexMAP bead-based gene expression signature analysis of total RNA from HL60 cells treated with tretinoin or DMSO (ninety transcripts); for FlexMap NM 003332 LUA#43: test concentration or dose not given here", "settings": "replicate columns", "key": {"[1]": {"settings": "Experiment 2, HL60 cells, Tretinoin-treated"}}, "note": "Several values for one entry are separate records, joined by “and”; a condition that tells them apart may be missing. Identical values can stand only once."}
{"compound": "CC1=C(/C=C/C(C)=C/C=C/C(C)=C/C(=O)O)C(C)(C)CCC1", "note": "[tretinoin, all-trans-retinoic acid]", "values": [{"measurement": "FlexMap NM_003132 LUA#68", "setting": "Experiment 2, Tretinoin", "value": "635 and 618 and 721 and 690.5 and 680 and 633 and 648 and 716"}, {"measurement": "FlexMap NM_003172 LUA#19", "setting": "Experiment 2, Tretinoin", "value": "333 (2×) and 312.5 and 370 and 365 and 330 and 352 and 380"}, {"measurement": "FlexMap NM_003332 LUA#43", "setting": "Experiment 2, Tretinoin", "value": "2733 and 2691.5 and 2589.5 and 2832 and 2821 and 2704 and 2692 and 2772"}, {"measurement": "FlexMap NM_003581 LUA#62", "setting": "Experiment 2, Tretinoin", "value": "55 (2×) and 54 and 114 and 78 and 85 and 59.5 and 53"}, {"measurement": "FlexMap NM_003644 LUA#17", "setting": "Experiment 2, Tretinoin", "value": "274 (2×) and 259 and 319 and 269 and 192 and 231 and 300"}, {"measurement": "FlexMap NM_003752 LUA#82", "setting": "Experiment 2, Tretinoin", "value": "139 and 142 and 168 and 149.5 and 150 and 153 and 162 and 164"}, {"measurement": "FlexMap NM_003879 LUA#24", "setting": "Experiment 2, Tretinoin", "value": "95 and 96.5 and 93 and 91.5 and 86 and 84 and 82 and 97"}, {"measurement": "FlexMap NM_004079 LUA#21", "setting": "Experiment 2, Tretinoin", "value": "150 and 147 and 144 and 133 and 133.5 and 142 and 143 and 152"}, {"measurement": "FlexMap NM_004095 LUA#59", "setting": "Experiment 2, Tretinoin", "value": "293 (2×) and 227 and 287 and 286.5 and 270 and 294 and 331"}, {"measurement": "FlexMap NM_004106 LUA#44", "setting": "Experiment 2, Tretinoin", "value": "1697 and 1748 and 1762 and 1756 and 1799 and 1678 and 1587.5 and 1827"}, {"measurement": "FlexMap NM_004134 LUA#76", "setting": "Experiment 2, Tretinoin", "value": "406 and 372 and 423.5 and 417 and 415 (2×) and 383 and 426"}, {"measurement": "FlexMap NM_004152 LUA#31", "setting": "Experiment 2, Tretinoin", "value": "2347 and 1882 and 2313 and 2471.5 and 2477.5 and 2269 and 2335.5 and 2470"}, {"measurement": "FlexMap NM_004526 LUA#88", "setting": "Experiment 2, Tretinoin", "value": "256 and 233 and 244 and 270 and 260 and 240.5 and 243 and 277"}, {"measurement": "FlexMap NM_004602 LUA#32", "setting": "Experiment 2, Tretinoin", "value": "303 and 274 and 320 and 337 and 334 and 363 and 355.5 and 296"}, {"measurement": "FlexMap NM_004723 LUA#20", "setting": "Experiment 2, Tretinoin", "value": "501 and 420 and 472.5 and 498 and 506 and 470 and 487.5 and 538"}, {"measurement": "FlexMap NM_004741 LUA#89", "setting": "Experiment 2, Tretinoin", "value": "402.5 and 370.5 and 329 and 324 and 317 and 325 and 328"}, {"measurement": "FlexMap NM_004759 LUA#37", "setting": "Experiment 2, Tretinoin", "value": "206.5 and 235 and 284 and 179 and 207.5 and 192 and 195 and 201"}, {"measurement": "FlexMap NM_005008 LUA#77", "setting": "Experiment 2, Tretinoin", "value": "452.5 (2×) and 393 and 501 and 482 and 432 and 439.5 and 502.5"}, {"measurement": "FlexMap NM_005375 LUA#86", "setting": "Experiment 2, Tretinoin", "value": "565 and 642 and 552 and 568 and 593 and 585 and 589 and 587"}, {"measurement": "FlexMap NM_005566 LUA#85", "setting": "Experiment 2, Tretinoin", "value": "744 and 745 and 851 and 821 and 830 and 748 and 752 and 776.5"}, {"measurement": "FlexMap NM_005914 LUA#60", "setting": "Experiment 2, Tretinoin", "value": "1161.5 and 1104 and 871 and 1091 and 1131 and 1081.5 and 1125 and 1172.5"}, {"measurement": "FlexMap NM_005915 LUA#72", "setting": "Experiment 2, Tretinoin", "value": "47 (4×) and 43 and 44 and 49 and 54"}, {"measurement": "FlexMap NM_005952 LUA#66", "setting": "Experiment 2, Tretinoin", "value": "243 and 261.5 and 265 and 274 and 260 and 263 and 224 and 268"}, {"measurement": "FlexMap NM_005980 LUA#73", "setting": "Experiment 2, Tretinoin", "value": "202 and 190 and 197 and 212 and 204 and 187 and 188 and 209.5"}, {"measurement": "FlexMap NM_006019 LUA#35", "setting": "Experiment 2, Tretinoin", "value": "907 and 1033 and 1059 and 938.5 and 911.5 and 862 and 871 and 956"}, {"measurement": "FlexMap NM_006138 LUA#56", "setting": "Experiment 2, Tretinoin", "value": "124 and 117 and 115.5 and 111 and 127 and 118 and 119.5 and 120"}, {"measurement": "FlexMap NM_006432 LUA#27", "setting": "Experiment 2, Tretinoin", "value": "1693 and 1842 and 1767 and 1718 and 1798 and 1725 and 1678 and 1814"}, {"measurement": "FlexMap NM_006452 LUA#71", "setting": "Experiment 2, Tretinoin", "value": "86 (2×) and 83.5 and 93 and 90 (2×) and 88 and 96"}, {"measurement": "FlexMap NM_006985 LUA#58", "setting": "Experiment 2, Tretinoin", "value": "56 and 50 (2×) and 55 and 52 and 54 and 60 and 63"}, {"measurement": "FlexMap NM_007282 LUA#16", "setting": "Experiment 2, Tretinoin", "value": "58 and 53 and 61 (2×) and 69 and 64 and 59 and 62"}, {"measurement": "FlexMap NM_014333 LUA#26", "setting": "Experiment 2, Tretinoin", "value": "720 (2×) and 704 and 706 and 712 and 662 and 633.5 and 726.5"}, {"measurement": "FlexMap NM_014366 LUA#61", "setting": "Experiment 2, Tretinoin", "value": "298.5 and 321 and 304.5 and 297 and 291 and 286.5 and 300 and 310.5"}, {"measurement": "FlexMap NM_014573 LUA#70", "setting": "Experiment 2, Tretinoin", "value": "178 and 154 and 187 and 179 and 161.5 and 172 and 157.5 and 198"}, {"measurement": "FlexMap NM_015201 LUA#57", "setting": "Experiment 2, Tretinoin", "value": "241 and 245.5 and 266 and 252 and 243 and 230 and 244 and 268.5"}, {"measurement": "FlexMap NM_018115 LUA#63", "setting": "Experiment 2, Tretinoin", "value": "1238 and 1270 and 1440 and 1028 and 1210 and 935.5 and 1175 and 1004"}, {"measurement": "FlexMap NM_018164 LUA#69", "setting": "Experiment 2, Tretinoin", "value": "198 and 200 and 205.5 and 182 (2×) and 188.5 and 186 and 211"}, {"measurement": "FlexMap NM_018256 LUA#83", "setting": "Experiment 2, Tretinoin", "value": "568 and 635.5 and 455 and 571 and 556 and 643 and 655 and 483.5"}, {"measurement": "FlexMap NM_018890 LUA#33", "setting": "Experiment 2, Tretinoin", "value": "934 and 873 and 1071 and 983 and 992 and 923.5 and 879 and 988"}, {"measurement": "FlexMap NM_019058 LUA#75", "setting": "Experiment 2, Tretinoin", "value": "177.5 and 194 (2×) and 192 and 181.5 and 179 and 176 and 171"}, {"measurement": "FlexMap NM_020117 LUA#78", "setting": "Experiment 2, Tretinoin", "value": "697 and 734 (2×) and 750 and 739 and 606 and 654 and 748"}, {"measurement": "FlexMap NM_021103 LUA#41", "setting": "Experiment 2, Tretinoin", "value": "2724 and 2581.5 and 2331.5 and 2558 and 2559 and 793 and 1990 and 2996.5"}, {"measurement": "FlexMap NM_021203 LUA#80", "setting": "Experiment 2, Tretinoin", "value": "657.5 and 657 and 757.5 and 703 and 701.5 and 650 and 660 and 741"}, {"measurement": "FlexMap NM_021974 LUA#64", "setting": "Experiment 2, Tretinoin", "value": "1286.5 and 1160 and 1272 and 1368.5 and 1315 and 1193.5 and 1269 and 1365"}, {"measurement": "FlexMap NM_024045 LUA#65", "setting": "Experiment 2, Tretinoin", "value": "178 and 149 and 163.5 and 164.5 and 175.5 and 158 and 157 and 182"}, {"measurement": "FlexMap TFRC LUA#92", "setting": "Experiment 2, Tretinoin", "value": "346 and 400.5 and 413 and 375 and 381 and 358 and 345.5 and 382"}, {"measurement": "FlexMap signal, transcript NM_000070 (LUA#2)", "setting": "[1]", "value": "437.5 and 358 and 444 (2×) and 393 (2×) and 419 and 422"}, {"measurement": "FlexMap signal, transcript NM_000153 (LUA#10)", "setting": "[1]", "value": "487 and 484 and 539 and 511 and 505 and 473 and 501 and 542"}, {"measurement": "FlexMap signal, transcript NM_000632 (LUA#12)", "setting": "[1]", "value": "369.5 and 476 and 491.5 and 406 and 400 and 360.5 and 374 and 395"}]}
